From patent US12655116B2, “Substituted isophthalic acid diamides” (Bayer Aktiengesellschaft, priority 2020, dated 2026)

What was measured:
ALOMY [1] = assay: Post-emergence herbicidal action against ALOMY; format: in vivo, Alopecurus myosuroides; conditions: Alopecurus myosuroides, 504 h, dosage 20 g/ha, visual assessment about 3 weeks after treatment vs untreated controls
In short: (§1)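 Herbicidal action is a visual percentage rating (0% = as untreated control, 100% = plants dead) made roughly 3 weeks after treatment. Plants were grown in sandy loam in the greenhouse and treated at the one-leaf stage, 2 to 3 weeks post-sowing. Treatment was a foliar spray of wettable-powder or emulsion-concentrate formulations at 600 to 800 l/ha water plus 0.2% wetting agent.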

MATIN [2] = assay: Pre-emergence herbicidal action against MATIN; format: in vivo, Matricaria inodora; conditions: Tripleurospermum inodorum, 504 h
In short: (§2)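 Sandy loam pots, seeds covered with soil, then surface-treated with WP or EC formulations at 600–800 l/ha water plus 0.2% wetting agent. Greenhouse, 3 weeks. Percent damage vs untreated controls.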

AVEFA [3] = assay: Post-emergence herbicidal action against AVEFA; format: in vivo, Avena fatua; conditions: Avena fatua, 504 h, 20 g/ha, visual assessment about 3 weeks after treatment, 100% = plants have died, 0% = like control plants
In short: as §1

STEME [4] = assay: Post-emergence herbicidal action against STEME; format: in vivo, Stellaria media; conditions: Stellaria media, 504 h
In short: as §1

VIOTR [5] = assay: Pre-emergence herbicidal action against VIOTR; format: in vivo, Viola tricolor; conditions: Viola tricolor, 504 h
In short: as §2

AMARE [6] = assay: Pre-emergence herbicidal action against AMARE; format: in vivo, Amaranthus retroflexus; conditions: Amaranthus retroflexus, 504 h, scored visually after 3 weeks vs untreated controls, 100% = plants have died, 0% = like control plants
In short: as §2

PHBPU [7] = assay: Post-emergence herbicidal action against PHBPU; format: in vivo, Pharbitis purpurea; conditions: Ipomoea purpurea, 504 h
In short: as §1

SETVI [8] = assay: Pre-emergence herbicidal action against SETVI; format: in vivo, Setaria viridis; conditions: Setaria viridis, 504 h, dosage 80 g/ha
In short: as §2

VERPE [9] = assay: Post-emergence herbicidal action against VERPE; format: in vivo, Veronica persica; conditions: Veronica persica, 504 h
In short: as §1

STEME [10] = assay: Pre-emergence herbicidal action against STEME; format: in vivo, Stellaria media; conditions: Stellaria media, 504 h
In short: as §2

AVEFA [11] = assay: Pre-emergence herbicidal action against AVEFA; format: in vivo, Avena fatua; conditions: Avena fatua, 504 h; 80 g/ha, pre-emergence
In short: as §2

VERPE [12] = assay: Pre-emergence herbicidal action against VERPE; format: in vivo, Veronica persica; conditions: Veronica persica, 504 h, dosage 80 g/ha
In short: as §2

DIGSA [13] = assay: Post-emergence herbicidal action against DIGSA; format: in vivo, Digitaria sanguinalis; conditions: Digitaria sanguinalis, 504 h
In short: as §1

POLCO = assay: Pre-emergence herbicidal action against POLCO; format: in vivo, Polygonum convolvulus; conditions: Fallopia convolvulus, 504 h, dosage 80 g/ha
In short: as §2

ECHCG [14] = assay: Post-emergence herbicidal action against ECHCG; format: in vivo, Echinochloa crus-galli; conditions: Echinochloa crus-galli, 504 h
In short: as §1

ABUTH [15] = assay: Pre-emergence herbicidal action against ABUTH; format: in vivo, Abutilon theophrasti; conditions: Abutilon theophrasti, 504 h
In short: as §2

ABUTH [16] = assay: Post-emergence herbicidal action against ABUTH; format: in vivo, Abutilon theophrasti; conditions: Abutilon theophrasti, 504 h, visual assessment about 3 weeks after treatment vs untreated controls
In short: as §1

AMARE [17] = assay: Post-emergence herbicidal action against AMARE; format: in vivo, Amaranthus retroflexus; conditions: Amaranthus retroflexus, 504 h, 20 g/ha, visual assessment about 3 weeks after treatment, 100% = plants have died, 0% = like control plants
In short: as §1

LOLRI = assay: Pre-emergence herbicidal action against LOLRI; format: in vivo, Lolium rigidum; conditions: Lolium rigidum, 504 h, 80 g/ha
In short: as §2

VIOTR [18] = assay: Post-emergence herbicidal action against VIOTR; format: in vivo, Viola tricolor; conditions: Viola tricolor, 504 h, 20 g/ha
In short: as §1

ALOMY [19] = assay: Pre-emergence herbicidal action against ALOMY; format: in vivo, Alopecurus myosuroides; conditions: Alopecurus myosuroides, 504 h; 80 g/ha, pre-emergence, scored visually after 3 weeks vs untreated controls (100% = plants have died, 0% = like control plants)
In short: as §2

DIGSA [20] = assay: Pre-emergence herbicidal action against DIGSA; format: in vivo, Digitaria sanguinalis; conditions: Digitaria sanguinalis, 504 h
In short: as §2

HORMU = assay: Post-emergence herbicidal action against HORMU; format: in vivo, Hordeum murinum; conditions: Hordeum murinum, 504 h, dosage 20 g/ha
Method: Seeds of monocotyledonous and dicotyledonous weed and crop plants are laid out in sandy loam soil in wood-fiber pots, covered with soil and cultivated in a greenhouse under good growth conditions. 2 to 3 weeks after sowing, the test plants are treated at the one-leaf stage. The compounds of the invention, formulated in the form of wettable powders (WP) or as emulsion concentrates (EC), are then sprayed onto the green parts of the plants in the form of an aqueous suspension or emulsion at a water application rate equivalent to 600 to 800 l/ha, with addition of 0.2% wetting agent. After the test plants have been left to stand in the greenhouse under optimal growth conditions for about 3 weeks, the action of the preparations is assessed visually in comparison to untreated controls (herbicidal action in percent (%): 100% activity=the plants have died, 0% activity=like control plants). […] The tables below illustrate, in an illustrative manner, the post-emergence herbicidal action of the compounds of the invention, the herbicidal activity being stated in percent.

PHBPU [21] = assay: Pre-emergence herbicidal action against PHBPU; format: in vivo, Pharbitis purpurea; conditions: Ipomoea purpurea, 504 h, dosage 80 g/ha
In short: as §2

SETVI [22] = assay: Post-emergence herbicidal action against SETVI; format: in vivo, Setaria viridis; conditions: Setaria viridis, 504 h
In short: as §1

ECHCG [23] = assay: Pre-emergence herbicidal action against ECHCG; format: in vivo, Echinochloa crus-galli; conditions: Echinochloa crus-galli, 504 h, 80 g/ha
In short: as §2

MATIN [24] = assay: Post-emergence herbicidal action against MATIN; format: in vivo, Matricaria inodora; conditions: Tripleurospermum inodorum, 504 h, dosage 20 g/ha
In short: as §1

CNC(=O)c1c(C(F)F)ccc(C(=O)Nc2nnnn2C)c1SC [Example 1-87]
90%: pest or weed control at 80 g/ha (MATIN [2]; dosage 80 g/ha) | pest or weed control at 20 g/ha (AMARE [6]; 20 g/ha) | pest or weed control at 20 g/ha (PHBPU [7]; dosage 20 g/ha) | pest or weed control at 20 g/ha (VERPE [9]; 20 g/ha) | pest or weed control at 20 g/ha (STEME [10]; dosage 20 g/ha) | pest or weed control at 80 g/ha (AVEFA [11]) | pest or weed control at 80 g/ha (VERPE [12]) | pest or weed control at 80 g/ha (POLCO) | pest or weed control at 5 g/ha (ABUTH [16]; dosage 5 g/ha) | pest or weed control at 20 g/ha (ABUTH [16]; dosage 20 g/ha) | pest or weed control at 80 g/ha (ALOMY [19]) | pest or weed control at 20 g/ha (SETVI [22]; dosage 20 g/ha)
100%: pest or weed control at 20 g/ha (STEME [4]; 20 g/ha) | pest or weed control at 80 g/ha (VIOTR [5]; dosage 80 g/ha) | pest or weed control at 80 g/ha (AMARE [6]; 80 g/ha) | pest or weed control at 80 g/ha (SETVI [8]) | pest or weed control at 80 g/ha (STEME [10]; dosage 80 g/ha) | pest or weed control at 5 g/ha (DIGSA [13]; 5 g/ha) | pest or weed control at 20 g/ha (DIGSA [13]; 20 g/ha) | pest or weed control at 80 g/ha (ABUTH [15]; 80 g/ha, scored visually after 3 weeks vs untreated controls (100% = plants have died, 0% = like control plants)) | pest or weed control at 20 g/ha (ABUTH [15]; dosage 20 g/ha, scored visually after 3 weeks vs untreated controls, 100% = plants have died, 0% = like control plants, read-out: Pre-emergence action against ABUTH (herbicidal activity in percent)) | pest or weed control at 20 g/ha (AMARE [17]) | pest or weed control at 20 g/ha (DIGSA [20]; dosage 20 g/ha) | pest or weed control at 80 g/ha (DIGSA [20]; dosage 80 g/ha) | pest or weed control at 80 g/ha (ECHCG [23])
80%: pest or weed control at 20 g/ha (ALOMY [1]) | pest or weed control at 20 g/ha (MATIN [2]; dosage 20 g/ha) | pest or weed control at 20 g/ha (AVEFA [3]) | pest or weed control at 5 g/ha (STEME [4]; dosage 5 g/ha) | pest or weed control at 20 g/ha (VIOTR [5]; dosage 20 g/ha) | pest or weed control at 5 g/ha (PHBPU [7]; dosage 5 g/ha) | pest or weed control at 5 g/ha (VERPE [9]; 5 g/ha) | pest or weed control at 5 g/ha (ECHCG [14]; dosage 5 g/ha) | pest or weed control at 20 g/ha (ECHCG [14]; dosage 20 g/ha) | pest or weed control at 80 g/ha (LOLRI) | pest or weed control at 20 g/ha (VIOTR [18]) | pest or weed control at 20 g/ha (HORMU) | pest or weed control at 80 g/ha (PHBPU [21]) | pest or weed control at 5 g/ha (SETVI [22]; dosage 5 g/ha) | pest or weed control at 20 g/ha (MATIN [24])
